This is an account of results in US12516022B2, “Derivatives of aryl hydrocarbon receptor agonists” (AZORA THERAPEUTICS, INC., priority 2021, dated 2026).

Assay [1] relates to dextran sodium sulfate (DSS)-induced acute colitis. Description: DSS-induced acute colitis mouse model, Compound 8 (Example 6). In kind it is in vivo, C57 BL/6J mice. The note with it: mice, 2 mg/kg/day oral gavage twice daily, 9 day test period. Here is the method:
Eight week old female C57 BL/6J mice, around 20 g body weight purchased from Charles River Laboratories were bred in specific pathogen free IVC cages (4 mice in each cage) in a temperature controlled (20±2° C.) room with a 12 hour light-dark cycle. Chow pellets and tap water were available ad libitum. All experimental protocols were approved by the Institutional Animal Care and Use Committee. The mice were acclimated at the animal facility for at least of three days before the experiments.
To generate dextran sodium sulfate (DSS)-induced acute colitis, the mice were induced with 3% DSS (molecular weight 36,000-50,000; MP Biomedicals, Santa Ana, CA, USA) in their drinking water for 7 consecutive days, and then switched to normal water. DSS solution was freshly prepared and changed daily. These mice were euthanized on day 8 (9th day of the experiment).
The mice were divided into groups with eight mice in each group. Mice were dosed with either 2 mg/kg/day Compound 8, twice daily in 200 μL distilled water (pH=7.0) by gavage from Day 0 to Day 9. Mice in the vehicle group were given only 200 μL distilled water by gavage.
Body weight and disease activity index (DAI) soring were recorded daily to assess the colitis. DAI score was the sum of the weight loss score, stool score and bleeding subscores. A blinded scoring system was employed to assess the colitis. […]

In assay [2] the target is T1, AhR (Rattus norvegicus, UniProt P41738).
T1 sequence (P41738 10-853): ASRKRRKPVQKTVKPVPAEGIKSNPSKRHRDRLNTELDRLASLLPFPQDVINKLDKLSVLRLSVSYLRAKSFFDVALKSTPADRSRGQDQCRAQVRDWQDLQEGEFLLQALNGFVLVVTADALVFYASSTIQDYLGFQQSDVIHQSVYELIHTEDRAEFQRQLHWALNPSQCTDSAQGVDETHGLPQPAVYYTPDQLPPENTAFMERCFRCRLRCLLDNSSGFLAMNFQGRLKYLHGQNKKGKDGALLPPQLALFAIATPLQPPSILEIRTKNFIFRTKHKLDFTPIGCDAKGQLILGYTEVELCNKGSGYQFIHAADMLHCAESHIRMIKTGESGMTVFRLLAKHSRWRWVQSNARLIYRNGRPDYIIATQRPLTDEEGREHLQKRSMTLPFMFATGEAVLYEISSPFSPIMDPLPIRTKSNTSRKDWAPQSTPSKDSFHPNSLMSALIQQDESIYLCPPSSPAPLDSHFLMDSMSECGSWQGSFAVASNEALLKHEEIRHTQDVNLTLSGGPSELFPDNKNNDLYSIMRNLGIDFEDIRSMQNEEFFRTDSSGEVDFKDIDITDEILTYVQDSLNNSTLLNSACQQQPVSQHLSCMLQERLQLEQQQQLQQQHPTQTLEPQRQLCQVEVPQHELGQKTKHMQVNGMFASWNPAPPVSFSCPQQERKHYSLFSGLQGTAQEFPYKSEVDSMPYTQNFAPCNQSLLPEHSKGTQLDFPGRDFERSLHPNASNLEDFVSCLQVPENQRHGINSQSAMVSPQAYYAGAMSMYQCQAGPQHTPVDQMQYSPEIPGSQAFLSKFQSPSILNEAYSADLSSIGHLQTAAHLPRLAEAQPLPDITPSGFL
Briefly: AhR/arnt-luciferase reporter assay in rat H4IIE cells. On the technique in general: In a reporter assay the amount or activity of a reporter protein is the signal.
Method: (§1) TCDD and MeBio were included in the study as positive controls. These were added into cell culture media containing charcoal-stripped fetal bovine serum to produce a 2× stock and then added to the reporter cells. The reporter cells were human Huh7 cells or Rat H4IIE cell lines with the native AhR and an AhR/arnt-Luciferase reporter vector. The final concentration of DM50 was 0.1%. Cells were incubated for 22 hours at 37° C. prior to addition of the luciferase detection reagent and measurement of activity in relative luminescence units.

Assay [3] has as its target T2, AhR (Homo sapiens, UniProt P35869).
T2 sequence (P35869 11-848): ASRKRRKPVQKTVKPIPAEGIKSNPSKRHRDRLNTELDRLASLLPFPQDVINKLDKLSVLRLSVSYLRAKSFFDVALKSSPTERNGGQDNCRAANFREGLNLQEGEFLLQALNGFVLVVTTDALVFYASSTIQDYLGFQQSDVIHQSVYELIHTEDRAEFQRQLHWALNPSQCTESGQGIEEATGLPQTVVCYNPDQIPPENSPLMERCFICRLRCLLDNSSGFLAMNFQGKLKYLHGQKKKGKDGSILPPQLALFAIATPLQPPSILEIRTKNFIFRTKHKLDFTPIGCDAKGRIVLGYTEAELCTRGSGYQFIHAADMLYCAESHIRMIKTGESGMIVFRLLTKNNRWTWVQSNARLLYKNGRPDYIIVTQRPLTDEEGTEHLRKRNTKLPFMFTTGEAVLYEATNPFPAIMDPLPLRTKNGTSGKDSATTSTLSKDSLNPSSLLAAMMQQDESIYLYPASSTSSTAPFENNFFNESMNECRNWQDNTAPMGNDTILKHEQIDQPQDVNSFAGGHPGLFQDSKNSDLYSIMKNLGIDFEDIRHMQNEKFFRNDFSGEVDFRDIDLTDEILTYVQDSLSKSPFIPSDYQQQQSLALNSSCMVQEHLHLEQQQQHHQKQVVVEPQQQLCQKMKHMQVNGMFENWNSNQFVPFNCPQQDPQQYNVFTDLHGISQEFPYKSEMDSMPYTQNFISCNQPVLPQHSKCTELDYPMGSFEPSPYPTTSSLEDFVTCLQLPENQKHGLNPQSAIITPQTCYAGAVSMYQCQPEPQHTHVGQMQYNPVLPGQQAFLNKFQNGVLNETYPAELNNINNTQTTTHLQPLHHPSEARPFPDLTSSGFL
Briefly: AhR/arnt-luciferase reporter assay in human Huh7 cells.
Method: as §1

In general, EC50 refers to the midpoint of the concentration-response curve.

The structures appear in SMILES notation.

With `O=C1/C(=C2/C(=O)N(CO)c3ccccc32)Nc2ccccc21` [Compound 8], the “Disease activity index (DAI) versus placebo” value in assay [1] is recorded as “lower disease activity index”. Moreover, the figures for the EC50 on AhR [2] and on AhR [3] were 25.6 nM and 71.5 nM, respectively. Further, the “Activation of the AhR compared with equimolar synthetic indirubin” value on AhR [3] (human Huh7 and rat H4IIE cells) was “activates the AhR to an equal or greater extent, and at the same or lower concentration, than an equimolar amount of synthetic indirubin”. Moreover, the “EC50 greater than the EC50 for indirubin” value at AhR [3] (human Huh7 cells) is on record as “about 20%”.
